Experiment [1] has as its system IL-23 (p19/p40). In words: IL23-p19 ELISA, Dendritic, LPS (compound screening using DC cells). Format: cell-based, Human. The note with it: PBMC-derived DC cells, IFNγ primed, LPS 1 μg/ml, 18 hours, 10 pt, read-out: IL23-p19 ELISA, Dendritic, LPS, 10 pt, EC50. How it is done:
Compound Screening Using DC Cells
Human PBMC cells (400 million) obtained from the vendor were transferred into a T-175 flask containing 15 ml RPMI media (10% FBS) and incubate for 2 hours at 37° C. After 2 hours, the media including floating cells was aspirated out carefully and 12 ml of fresh RPMI media (10% FBS) containing GMCSF (100 ng/ml) and IL4 (20 ng/ml) was added, and the flask was kept in a 37° C. incubator for 7 days.
After 3 days, fresh GMCSF (100 ng/ml) and IL4 (20 ng/ml) were added to the flask and the incubation continued. After 7 days, the fully differentiated cells were harvested by spinning down (1200 rpm/5 min) and aspirating the media. The cells were suspended in fresh RPMI media (10% FBS) containing 50 ng/ml IFNγ (1000 U/ml) and then plated (50K/well in 100 μl) onto a white clear bottom 96 well plate and left in a 37° C. incubator for 24 hours.
After 24 hours incubation, 100 μl of RPMI media was added containing 2× concentrated test compound per well to the above cell-culture media (final concentration becomes 1×) and the plates were pre-incubated for 1 hour at 37° C. before stimulating with LPS.
After 1 hour compound pre-incubation, 10 piper well of 20× concentrated LPS solution in RPMI media was added to give a final concentration of 1 μg/ml. The mixture was shaken and incubated the plates at 37° C. for an additional 18 hours.
155 μl of the supernatant was harvested from each well carefully (without the tip touching the bottom of the well) and to the remaining 50 μl/well of the cell culture plate was added 50 μl of Cell Titer Glo reagent. The mixture was incubated for 1-2 minutes on a shaker and the plate was read for luminescence intensity to determine the compound cytotoxicity. The cell culture supernatant collected above was used to carry out IL23 ELISA (65 μl -Supernatant) and IL10 ELISA (90 μl—Supernatant) as described below.
Human IL-23 (p19/p40) ELISA Protocol (e-Biosciences)
To 10.5 ml PBS add 50 μl of anti-IL23 (p19) was added capture antibody (2.5 μg/ml). The mixture was mixed well and 100 μl of the coating solution was added to each well of the 96 well white plates from Pierce. The wells were covered and incubated overnight at 4° C.
The anti-IL23 (p19)-antibody-coated plates were washed 2× using TBST (use plate washer) and blocked using 200 μl of 0.5% Casein for 1.5-2 hours at room temperature with shaking.
The plates were washed 2× using TBST and the supernatant was transferred (65 μl/well) to the above pre-blocked/IL23(p19)-antibody-coated 96 well plate, and incubated at room temperature for 1.5 hours with shaking.
The plates were washed 4× using TBST (plate washer) and 100 μl/well detection antibody solution prepared from 2 μl of biotin labeled anti-IL-12 (p40/p70) antibody in 11 ml 1% BSA/PBS solution (1-5000 dilution) was added. The plates were incubated for 1 hour with shaking at Room temperature.
Again, the plates were washed 4× with TBST and 100 μl of HRP labeled Streptavidin (R&D Systems) solution (10 μl/10 ml 1% BSA solution) was added, and the plates were incubated at room temperature for another 45 minutes with shaking.
After 45 minutes, the plates were washed with TBST 4× and 100 ul/well Super Signal ELISA Pico Chemiluminescent Substrate from Pierce (3.5 ml A+3.5 ml B+3.5 ml MQ water) was added. The plates were shaken for 1-2 minutes then read on a plate reader.
(In an ELISA, binding on a coated surface is turned into a signal by an enzyme label.)

The test system of experiment [2] is IL-23p19. In words: LPS induced IL23p19 in THP-1 cells (with IFNγ primed) assay. Format: cell-based, Human. As to conditions: THP-1 cells, IFNγ primed, LPS 1 ug/mL, 18 hours, 10 pt, read-out: IL23-p19 ELISA, THP1-IFNy, LPS, 10 pt EC50. The text has this: LPS Induced IL23p19 in THP-1 Cells (with IFNγ Primed) Assay
THP-1 Cells (ATCC, Cat#TIB-202), Dimethyl Sulfoxide (DMSO) (Sigma-Aldrich, Cat#D2650), RPMI 1640 (Cellgro, Cat#10-040-CM), Fetal Bovine Serum (Sigma, Cat#F4135), Albumin From Bovine Serum (BSA) (Sigma-Aldrich, Cat#A7906), LPS (Serotype K-235, Sigma, Product Number L 2143), IFNγ (Peprotech, Cat#300-02) Capture antibody: Human IL-23p19 ELISA (e-Bioscience, Cat. #14-7238-85), Detection antibody: Primary Mouse Biotinylated anti-human IL-12(p40/p70) (e-Bioscience, Cat. #13-7129-85), Secondary HRP-conjugated Streptavidin (R&D Systems, Cat#DY998), 1×PBST Washing Buffer (PBS-Tween tablet) (VWR International, Cat#80058-558), ELISA Blocking Buffer (PBS with 1% BSA), ELISA Dilution Buffer (PBS with 1% BSA), 384 Well Flat-Bottom, MaxiSorp Black Immuno Plates (Thermo Scientific, Cat#12-565-346), 384 Well Flat-Bottom, White Tissue Culture Plates (Thermo Scientific, Cat#12-565-343), Super Signal ELISA Pico Chemiluminescent Substrate (Thermo Scientific, Cat#37070), Cell Titer Glo reagent (Promega, Cat#G7573), Positive control, IKK2VI inhibitor (Calbiochem, Cat#401483), AquaMax 4000 plate washer (Molecular Devices), Luminometer, Wallac Victor2 1420 Multilabel Counter.
On day 1, 50K/well THP-1 cells were seeded and primed with IFNγ (50 ng/mL) in 384-well plates for about 18 hours in RPMI media with 10% FBS. On day 2, the compound was serially diluted in DMSO from 5 mM in 3-fold dilutions, and then diluted 1:125 in RPMI media with 10% FBS. 50 μL/well 2× compound was added to 50 μL/well THP-1 cells (with IFNγ primed) in duplicate in 384 well tissue culture plates. The cells were pre-incubated with compound for 1 hour at 37° C., 5% CO2 before addition of 10 μL/well 11×LPS to give a final concentration of 1 ug/mL LPS. Day 3, after stimulation for 18 hours at 37° C., 5% CO2, the assay plate was centrifuged and 70 μL/well supernatant was harvested. IL-23p19 protein in 70 μL/well of supernatant was measured by sandwich ELISA, and 25 μl/well Cell Titer Glo reagent was added to the remaining cells to measure compound toxicity.
Maxisorp immuno ELISA plates were pre-coated with 25 μL/well of anti-IL-23p19 capture antibody (2.5 ug/mL) in PBS overnight at room temperature. After washing with 1× PBST, the plates were blocked using 100 μL/well of 1% BSA in PBS for 2 hours at room temperature. The plates were washed three times with 1×PBST and 70 μL/well supernatant were added. The plates were incubated at room temperature for 2 hours with shaking and washed three times with 1×PBST. 25 μL/well of biotin labeled anti-IL-12(p40/p70) detection antibody (100 ng/mL) in PBS with 1% BSA was added and the plates were incubated at room temperature for 2 hours with shaking. After washing three times with 1×PBST, 25 μL/well of streptavidin-HRP (1:200) in PBS with 1% BSA was added and the plates were incubated at room temperature for 20 minutes with shaking. The plates were washed three times with 1× PBST and 25 μL/well of Super Signal ELISA Pico Chemiluminescent Substrate were added. The plates were read with a luminometer, and the chemiluminescence values were entered into Athena (Rigel) for curve fitting, EC50 calculation, and database storage.

Structures are written as SMILES. Counter-ions that a name gives are not always drawn. Like-named read-outs stand apart in the source and are kept apart here.

The values below come from patent publication US10208074B2, “Pyrazole compounds and method for making and using the compounds” (Rigel Pharmaceuticals, Inc., priority 2015, dated 2019).

For `CC(C)(O)Cn1cc(NC(=O)c2ccc(-c3cn[nH]c3)o2)c(-c2ccccn2)n1` [Compound I-3, N-(1-(2-hydroxy-2-methylpropyl)-3-(pyridin-2-yl)-1H-pyrazol-4-yl)-5-(1H-pyrazol-4-yl)furan-2-carboxamide], the half-maximal effective concentration (EC50) (commonly the midpoint of the concentration-response curve) was 362 nM in experiment [1] (Homo sapiens, 18 h) and 424 nM in experiment [2] (Homo sapiens, THP-1, 18 h).
For `COCCn1cc(NC(=O)c2ccc(-c3cnn(COP(=O)(O)O)c3)o2)c(-c2ccccn2)n1` [Compound I-12, (4-(5-((1-(2-methoxyethyl)-3-(pyridin-2-yl)-1H-pyrazol-4-yl)carbamoyl)furan-2-yl)-1H-pyrazol-1-yl)methyl dihydrogen phosphate] the same measures were 1050 nM and 592 nM.
Consider `CC(C)n1cc(NC(=O)c2csc(-c3cn[nH]c3)n2)c(-c2ccccn2)n1` [II-59, N-(1-isopropyl-3-(pyridin-2-yl)-1H-pyrazol-4-yl)-2-(1H-pyrazol-4-yl)thiazole-4-carboxamide], for which the EC50 amounted to 216 nM in experiment [1] (Homo sapiens, 18 h) and 422 nM in experiment [2] (Homo sapiens, THP-1, 18 h).
Consider `CCO[C@H]1C[C@@H](n2cc(NC(=O)c3csc(-c4cnn(COP(=O)(O)O)c4)n3)c(-c3ncccc3F)n2)C1` [II-163, (4-(4-((1-((cis)-3-ethoxycyclobutyl)-3-(3-fluoropyridin-2-yl)-1H-pyrazol-4-yl)carbamoyl)thiazol-2-yl)-1H-pyrazol-1-yl)methyl dihydrogen phosphate], for which the EC50 in experiment [1] was 348 nM; in experiment [2] (Homo sapiens, THP-1, 18 h), 109 nM.
As for `O=C(Nc1cn(C2CCC3(CC2)OCCO3)nc1-c1ncccc1F)c1csc(-c2cn[nH]c2)n1` [II-140, N-(3-(3-fluoropyridin-2-yl)-1-(1,4-dioxaspiro[4.5]decan-8-yl)-1H-pyrazol-4-yl)-2-(1H-pyrazol-4-yl)thiazole-4-carboxamide], the EC50 in experiment [1] (Homo sapiens, 18 h) was 32.3 nM; in experiment [2] (Homo sapiens, THP-1, 18 h), 30.8 nM.
With `O=C(Nc1cn(C(F)F)nc1-c1ccccn1)c1csc(-c2cn[nH]c2)n1` [II-88, N-(1-(difluoromethyl)-3-(pyridin-2-yl)-1H-pyrazol-4-yl)-2-(1H-pyrazol-4-yl)thiazole-4-carboxamide], the 50% effective concentration (EC50) in experiment [1] (Homo sapiens, 18 h) was 390 nM; in experiment [2] (Homo sapiens, THP-1, 18 h), 96.5 nM.
`CC(OC(=O)C(C)C)OC(=O)n1cc(-c2nc(C(=O)Nc3cn(C)nc3-c3ccccn3)cs2)cn1` (stereo not drawn) [II-2, 1-(isobutyryloxy)ethyl 4-(4-((1-methyl-3-(pyridin-2-yl)-1H-pyrazol-4-yl)carbamoyl)thiazol-2-yl)-1H-pyrazole-1-carboxylate]: the EC50 in experiment [1] (Homo sapiens, 18 h) turned out to be 298 nM; in experiment [2] (Homo sapiens, THP-1, 18 h), 196 nM.
On to `O=C(Nc1cn(C2C=C(F)C2)nc1-c1ccccn1)c1csc(-c2cn[nH]c2)n1` (stereo not drawn) [II-133, N-(1-(3-fluorocyclobut-2-en-1-yl)-3-(pyridin-2-yl)-1H-pyrazol-4-yl)-2-(1H-pyrazol-4-yl)thiazole-4-carboxamide formate], for which the EC50 in experiment [1] (formate) was found to be 1520 nM; in experiment [2] (formate), 313 nM.
For the molecule `CCO[C@H]1C[C@@H](n2cc(NC(=O)c3csc(-c4cn[nH]c4)n3)c(-c3nc(F)ccc3F)n2)C1` [II-174, N-(3-(3,6-difluoropyridin-2-yl)-1-((cis)-3-ethoxycyclobutyl)-1H-pyrazol-4-yl)-2-(1H-pyrazol-4-yl)thiazole-4-carboxamide], the EC50 in experiment [1] (Homo sapiens, 18 h) was 70.8 nM; in experiment [2] (Homo sapiens, THP-1, 18 h) it was 82.1 nM.
Consider `CCOCCn1cc(NC(=O)c2ccc(-c3cnn(COP(=O)(O)O)c3)o2)c(-c2ccccn2)n1` [Compound I-55, sodium (4-(5-((1-(2-ethoxyethyl)-3-(pyridin-2-yl)-1H-pyrazol-4-yl)carbamoyl)furan-2-yl)-1H-pyrazol-1-yl)methyl phosphate], for which the 50% effective concentration (EC50) turned out to be 801 nM in experiment [1] (phosphate) and 1200 nM in experiment [2] (phosphate).
Take `CCO[C@H]1C[C@@H](n2cc(NC(=O)c3ccc(-c4cn[nH]c4)o3)c(-c3nccs3)n2)C1` [Compound I-62, N-(1-((1s,3s)-3-ethoxycyclobutyl)-3-(thiazol-2-yl)-1H-pyrazol-4-yl)-5-(1H-pyrazol-4-yl)furan-2-carboxamide formate]: the EC50 worked out at 115 nM in experiment [1] (Homo sapiens, 18 h) and 48.1 nM in experiment [2] (Homo sapiens, THP-1, 18 h).
Consider `Cn1cc(-c2ccc(C(=O)Nc3cn(C)nc3-c3ccccn3)o2)cn1` [Compound I-69, 5-(1-Methyl-1H-pyrazol-4-yl)-N-{1-methyl-3-(pyridine-2-yl)-1H-pyrazol-4-yl}furan-2-carboxamide, formate salt], for which the EC50 in experiment [1] (Homo sapiens, 18 h) stood at 325 nM; in experiment [2] (Homo sapiens, THP-1, 18 h) it was 1250 nM.
